“And” between values parts separate entries of the source, which are not always exact repeats. Identical values can stand only once.
Key:
[1] = system: B16 melanoma cells; experiment: Intracellular uptake of gadolinium complexes (ICP-MS); type: cell-based, mouse; conditions: 24-h incubation; for intracellular uptake of gadolinium complex: B16 melanoma cells, 10 μM
Procedure: (§1) Cell culture. B16 melanoma cells (mouse) and MH3924A Morris hepatoma cells (rat) were obtained from the German Cancer Research Center (DKFZ) tumor bank and grown at 37° C. as stock cultures in RPMI 1640 supplemented with 10% fetal calf serum and 1% glutamine as standard medium under a 5% CO2 atmosphere (all components: Pan Biotech GmbH, Aidenbach, Germany). For contrast agent uptake studies 10^6 cells were inoculated into 25 cm^2 culture flasks (BD Biosciences, Bedford, USA) and grown for 24 h in 10 mL of the standard culture medium. Cells were then incubated for an additional 24 h (1 h for temperature dependence studies) with fresh medium containing 0, 1, 2.5, 5 or 10 μM of the selected gadolinium complex (three replicate flasks for each incubation). Afterwards the medium was removed, cells were trypsinated, washed twice, resuspended in culture medium and counted (typical yields: 3.5-6 million cells). For comparison 2.5×10^5 human melanocytes (Promo Cell, Heidelberg, Germany) were incubated for 24 h with melanocyte growth medium (Promo Cell, Heidelberg, Germany) containing 0, 1, 2.5, 5 or 10 μM of the selected gadolinium complex (two replicate flasks for each incubation). The work up procedure was as described above typically yielding 2.5×10^5 cells. Cultured human hepatocytes (Cytonet GmbH, Weinheim, Germany) embedded in a collagen matrix in a 12 well microtiter plate, with 6×10^5 viable cells per well were incubated for 24 h in hepatocyte growth medium (Cytonet GmbH, Weinheim, Germany) containing the same concentration series of selected gadolinium complexes. Afterwards the medium was removed, cells were separated using collagenase (Roche Diagnostics, Mannheim, Germany). After digestion the cells were washed twice with PBS, resuspended in culture medium and counted (typical yields: 6×10^5 cells per tube). The intracellular gadolinium content was determined by ICP-MS as described below.
(§2) ICP-MS. Samples containing the above mentioned number of harvested cells were digested with 50% concentrated HNO3 (Superselect; Merck, Darmstadt, Germany) under microwave heating with a Mars 5 apparatus (CEM GmbH, Kamp-Lintfort, Germany). To each sample 100 μL of an aqueous solution of rhodium chloride (1 μg/mL) were added so that Rh-103 could be used as an internal quantification standard. Gd-160 measurements were performed with the ICP-MS instrument mentioned above. The gadolinium concentrations were determined using standard curves created prior to cell analyses. For each uptake incubation condition triplicate cell samples were analyzed, and Gd content for each sample was recorded as the mean of two MS determinations.
(§3) Intracellular Uptake of Gadolinium Complexes. B16 melanoma and MH3924A hepatoma cells as well as human melanocytes and hepatocytes were incubated for 24 h in the presence of the gadolinium complexes shown in FIG. 1, using concentrations in the range of 1-10 μM. Incubations with the unsubstituted [Gd(DTPA)(H2O)]^2−complex (Magnevist®) served as controls. Following cell harvest and hydrolysis, inductively coupled plasma mass spectrometry (ICP-MS) with direct detection of gadolinium was used to quantitate complex uptake (triplicate cultures for each incubation).
(§4) Cell Uptake Studies. A493 (human kidney), B16 melanoma cells (mouse), HeLa (human cervix), MCF-7 (human breats), MH3924A (Morris hepatoma) cells (rat) and 3T3 NIH (mouse fibroblasts) were obtained from the DKFZ tumor cell collection. 3×10^6 cells of each cell type were grown for 24 hours in culture flasks. Afterwards they were incubated for 1 hour in 10 mL culture media containing 0, 10, 50 and 100 μM of Gd-2.2. Gd-3.2 or Gd-4.2. Afterwards the medium was removed, the cells were trypsinated, washed twice, resuspended in culture medium and counted. The gadolinium uptake was determined in triplicate. […] cells were incubated with 0, 1, 2.5, 5 and 10 μM of the Gd-1.2. and Gd-5.2. for 24 h. […]

[2] = system: MH3924A Morris hepatoma cells; experiment: as above; type: cell-based, rat; conditions: MH3924A cells; for intracellular uptake of gadolinium complex: 24-h incubation
Procedure: as §1, §2, §3, §4

[3] = Biodistribution and excretion in tumor-bearing ACI rats; type: in vivo, rat; conditions: for gadolinium obtained in the faeces / gadolinium obtained in the urine: 24 h after injecting
Procedure: Animal models. For in vivo tumor studies 2×10^6 MH3924A tumor cells were injected subcutaneously into the right thigh of male ACI rats (Charles River, Sulzfeld, Germany) weighing 220 to 260 g. All animal experiments were performed in compliance with the German Animal Protection Laws (Permission 35-9185.81/G-7-03, Reg.-Praesidium, Karlsruhe, Germany).
Biodistribution and excretion data. At 14 days after tumor inoculation, when tumors had reached a diameter of ca. 5-6 mm, the biodistribution experiments were initiated. Each animal (210-250 g) was given an intravenous tail-vein injection of […] Magnevist® (Schering, Berlin, Germany) or […] of Gd-5.1. or Gd-6.1. 1 h and 24 hs post-injection (p.i.), the animals were weighed, sacrificed by cervical dislocation and dissected. Organs or tissues were blotted dry and weighed. Samples containing 100-500 mg of the tumor or organs were digested with concentrated HNO3 (Superselect; Merck, Darmstadt, Germany) and H2O2 under microwave heating with a Mars 5 apparatus (CEM GmbH, Kamp-Lintfort, Germany). To each sample 100 μL of an aqueous solution of rhodium chloride (1 μg/mL) were added so that Rh-103 could be used as an internal quantification standard. Gd-160 measurements were performed with the ICP-MS instrument mentioned above. The gadolinium concentrations were determined using standard curves created prior to tissue analyses. The results were expressed as % ID/g tissue. Urine and faeces were gathered in order to measure the excreted amount of Gd(III).

[4] = system: human melanocytes; experiment: Intracellular uptake of gadolinium complexes (ICP-MS); type: cell-based; conditions: 24-h incubation (FIG. 2C)
Procedure: Cell culture. B16 melanoma cells (mouse) and MH3924A Morris hepatoma cells (rat) were obtained from the German Cancer Research Center (DKFZ) tumor bank and grown at 37° C. as stock cultures in RPMI 1640 supplemented with 10% fetal calf serum and 1% glutamine as standard medium under a 5% CO2 atmosphere (all components: Pan Biotech GmbH, Aidenbach, Germany). For contrast agent uptake studies 10^6 cells were inoculated into 25 cm^2 culture flasks (BD Biosciences, Bedford, USA) and grown for 24 h in 10 mL of the standard culture medium. […] Afterwards the medium was removed, cells were trypsinated, washed twice, resuspended in culture medium and counted (typical yields: 3.5-6 million cells). […] After digestion the cells were washed twice with PBS, resuspended in culture medium and counted (typical yields: 6×10^5 cells per tube). The intracellular gadolinium content was determined by ICP-MS as described below.
ICP-MS. […] To each sample 100 μL of an aqueous solution of rhodium chloride (1 μg/mL) were added so that Rh-103 could be used as an internal quantification standard. […] The gadolinium concentrations were determined using standard curves created prior to cell analyses. For each uptake incubation condition triplicate cell samples were analyzed, and Gd content for each sample was recorded as the mean of two MS determinations.

[5] = 1 h post i.v. injection, one ACI rat, scaled to Gd dose of 100 μmol/kg
[6] = 24 h post i.v. injection, one ACI rat
[7] = 24 h post i.v. injection, one ACI rat, scaled to Gd dose of 100 μmol/kg

SMILES | intracellular uptake of gadolinium complex [1] [fmol/cell] | intracellular uptake of gadolinium complex ([2]; 10 μM) | Gd concentration, Blood [3, 5] [nmol/g] | Gd concentration, Bone (femur) [3, 5] [nmol/g] | Gd concentration, Bone Marrow (femur) [3, 5] [nmol/g] | Gd concentration, Kidney (+urine) [3, 5] [nmol/g] | Gd concentration, Liver [3, 5] [nmol/g] | Gd concentration, Lung [3, 5] [nmol/g] | Gd concentration, Small Intestine [3, 5] [nmol/g] | Gd concentration, Tumor (MH3924A) [3, 5] [nmol/g] | gadolinium obtained in the faeces ([3]; ACI rat) | gadolinium obtained in the urine ([3]; ACI rat) [%] | Excretion as % of total dose [3, 6] [%] | Gd concentration, Blood [3, 7] [nmol/g] | Gd concentration, Bone (femur) [3, 7] [nmol/g] | Gd concentration, Bone Marrow (femur) [3, 7] [nmol/g] | Gd concentration, Faeces [3, 7] [nmol/g] | Gd concentration, Kidney (+urine) [3, 7] [nmol/g] | Gd concentration, Liver [3, 7] [nmol/g] | Gd concentration, Lung [3, 7] [nmol/g] | also measured
NCCN(CCN)C(=O)CN(CCN(CCN(CC(=O)[O-])CC(=O)N(CCN)CCN)CC(=O)[O-])CC(=O)[O-].[Gd+3] [Gd-5.1] | 0.027±0.002 | 0.053±0.005 fmol/cell | 7.8 | 2.2 | 0.8 | 120.3 | 4.2 | 12.7 | 18.9 | 5.5 | about 1% | 98 | 98 | 0.1 | 0.9 | 1.7 | 16.6 | 40.9 | 2.0 | 24.2 | observed factor of decrease in uptake at 4° C. vs. 37° C. ([2]; 1 h (FIG. 3A)): ~6.5; uptake over 1 h at 4° C. ([2]; 1 h, 4° C., 10 μM): 0.00064±0.00004 fmol/cell; uptake over 1 h at 37° C. ([2]; 1 h, 37° C., 10 μM): 0.008±0.00041 fmol/cell; Gd concentration, Brain [3, 5]: 0.5 nmol/g; Gd concentration, Muscle (femur) [3, 5]: 1.6 nmol/g; Gd concentration, Spleen [3, 5]: 4.7 nmol/g; Gd concentration, Urine (cumulative) [3, 5]: 2116.7 nmol/g; Gd concentration, Small Intestine [3, 7]: 0.4 nmol/g; Gd concentration, Tumor (MH3924A) [3, 7]: 0.6 nmol/g; Gd concentration, Urine (cumulative) [3, 7]: 537.2 nmol/g; agent still present in the tumor ([3]; 24 h post injection, MH3924A tumor, ACI rat): about 0.020 fmol/cell; preferential tissue binding (biodistribution) ([3]; ACI rat bearing MH3924A tumor, i.v.): binds preferentially to lung tissue and parts of the excretory system e.g. small intestine and kidneys
CCN(CC)CCNC(=O)CN(CCN(CCN(CC(=O)[O-])CC(=O)N(CCN)CCN)CC(=O)[O-])CC(=O)[O-].[Gd+3] [Gd-3.1] | 0.082±0.004 | 0.175±0.0013 fmol/cell and 0.175 fmol/cell |  |  |  |  |  |  |  |  |  |  |  |  |  |  |  |  |  |  | fold increase in intracellular accumulation versus complex of ligand 2.1 ([1]; cell line not stated): 2.87
NCCCCN(CCCN)C(=O)CN(CCN(CCN(CC(=O)[O-])CC(=O)N(CCCN)CCCCN)CC(=O)[O-])CC(=O)[O-].[Gd+3] [Gd-6.1] |  | 0.108 fmol/cell | 4.8 | 3.3 | 0.9 | 141.6 | 6.6 | 20.2 | 4.0 | 7.2 | about 1% | 98 | 94 | 0.1 | 1.0 | 2.3 | 41.4 | 62.3 | 5.5 | 5.9 | factor of higher uptake into B16 melanoma versus human melanocytes [4]: ~2; Gd concentration, Small Intestine [3, 7]: 0.1 nmol/g; Gd concentration, Tumor (MH3924A) [3, 7]: 0.8 nmol/g; Gd concentration, Urine (cumulative) [3, 7]: 650.9 nmol/g

Reference: patent US20070202047A1, “Polyamine-substituted ligands for use as contrast agents” (priority 2006, published 2007)
